Key:
Arabidopsis = test: Number of rosette leaves (vegetative phase) and of cauline leaves and branches (first inflorescence phase) after hormone or inhibitor treatment; assay type: in vivo, Arabidopsis thaliana
Protocol: Plants were grown at 23° C. in a 16 h light/8 h dark cycle. The following plant lines were previously described: lfy-1 null and lfy-2 hypomorph mutants; lfy-6 null mutants, 35S:LFY-GR; 35S:LFY; gal-3; gai; pRGA:RGA-GFP; pRGA:RGA-HA; gal-3 rgl2-1 rga-2 35S:RGA-GR; pSPL9:rSPL-FLAG; 35S:AlcR pAlcA:mir156f; and 35S:SPL9-GR and pAP1:AP1-GFP. […] Most plants were in the Columbia background except for 35S:LFY-GR, pRGA:RGA-GFP, and lfy-6 mutants, which were in the Landsberg erecta background. To avoid comparisons of plants in different ecotype backgrounds, we performed crosses between homozygous transgenic plants and conducted all subsequent analyses in the F1 population. […] Statistical analyses were performed on plant phenotypes that are normally distributed. The population size was determined by expedience (tissue or plant amount that could reasonably be obtained).
For mock treatment, 0.01% ethanol (EtOH) with 0.01% Silwet L-77 was used as control. […] For paclobutrazol treatment in wild type to examine the number of rosette and cauline leaves formed (figure S8), wild-type plants were first germinated on MS plates. After 4 days plants were transferred either to MS plates containing 1 μM paclobutrazol or to control MS plates and grown for 6 more days. At day 10, the plants were transplanted to soil. […] For test of the number of rosette or cauline leaves produced under conditions of increased DELLA accumulation/activity (FIG. 4E), WT, 35S:LFY/-, pSPL9:rSPL9-FLAG/-, and 35S:LFY/- pSPL9:rSPL9-FLAG/- were first germinated on MS plates, followed by transfer to MS plates containing 1 μM paclobutrazol or to control MS plates from day 4 to day 10 of age. At day 10, the plants were transplanted onto soil.

APETALA1 (AP1) = test: AP1 induction (qRT-PCR, pAP1:AP1-GFP imaging) in GR-fusion transgenic plants after treatment; assay type: in vivo, Arabidopsis thaliana; settings: 4 hours
Protocol: For mock treatment, 0.01% ethanol (EtOH) with 0.01% Silwet L-77 was used as control. […] For test of AP1 induction in single or double hemizygous transgenic lines (FIG. 4A, C, and figure S9) treatments were performed by spraying 16-day-old plants grown on plates once with 10 μM dexamethasone and/or 10 μM paclobutrazol. Tissues were harvested after 4 hours. […] 16-day-old 35S:AlcR pAlcA:mir156f/- 35S:LFY-GR/- plants were sprayed with 10 μM dexamethasone plus 10 μM paclobutrazol and exposed to ethanol vapor or water control. Tissues were harvested after 4 hours. […]
For qRT-PCR, RNA was isolated form entire plants after the switch to reproduction using TRIzol reagent (Invitrogen) and RNeasy Mini kits (Qiagen) and processed as previously described (45). […] Quantitative real-time PCR was performed using Power SYBR green mastermix (Applied Biosystems). The mean and standard error were determined using three technical replicates from one representative experiments. […]
For imaging of GFP fluorescence, inflorescence apices were dissected to remove older flowers and imaged using a Leica confocal microscope (Leica, LCS SL) equipped with an argon-krypton ion laser with the appropriate filter sets for visualizing GFP. […]

[1] = wild-type plants, MS plates containing 1 μM paclobutrazol day 4 to day 10, versus control plates

Structure (SMILES): CC(C)(C)[C@@H](O)[C@@H](Cc1ccc(Cl)cc1)n1cncn1 (racemic) [paclobutrazol]
- number of cauline leaves formed (Arabidopsis; 35S:LFY pSPL9:rSPL9-FLAG plants, 1 μM paclobutrazol day 4 to day 10, mean±SEM, 35S:LFY plants 2.5±0.2): 0.3±0.1
- number of branches and cauline leaves (duration of the first inflorescence phase) (Arabidopsis; [1]): fewer
- number of rosette leaves (duration of the vegetative phase) (Arabidopsis; [1]): more
- pAP1:AP1-GFP expression in young flower primordia (APETALA1 (AP1); 35S:LFY-GR plants, Dex 10 μM plus PAC 10 μM, confocal imaging): increase in AP1-GFP
- production of AP1 in young flower primordia (APETALA1 (AP1); LFY-GR plants, 10 μM paclobutrazol simultaneously with 10 μM dexamethasone, relative to either alone): increased production of AP1

— patent US11584937B2, “Compositions and methods for controlling plant growth and development” (THE TRUSTEES OF THE UNIVERSITY OF PENNSYLVANIA, priority 2014, dated 2023)
